We go through four compounds from patent publication US20240280562A1, “METHOD FOR QUANTIFYING ODORS, CELLS USED IN SAME, AND METHOD FOR PRODUCING SAID CELLS” (KOMI HAKKO CORPORATION, priority 2017, published 2024).

The target of experiment [1] is Olfr1258 (Mus musculus, UniProt Q8VGN6). Description: Reconstruction experiment: cAMP-responsive luciferase in HEK293 cells expressing Olfr1258. The format is cell-based.
Experiment [2] addresses Olfr45 (Mus musculus, UniProt A0JLW4). Description: cell-based. How it is done:
(§1) The olfactory epithelium-derived cell solution obtained above was subjected to centrifugation at 1000 rpm for 5 minutes (2420, KUBOTA Co.) to remove the supernatant, and to this, a Ca^2+ ringer solution containing […] Fluo4-AM (F312, Dojindo) and 0.02 wt % Pluronic F-127 (P6867, Molecular Probes) was then added. A polystyrene slide having about 400000 nano chambers with a diameter of […] for As OneCell Picking system (AS ONE Corporation; automated single-cell analysis and isolation system [equipped with temperature control system, time lapse system, perfusion system]; Yoshimoto, et al., Scientific Reports Vol. 3 (2013) 1191; hereinafter this can be referred to as “OneCell system” in the description) was immersed in 2% PVP (polyvinyl pyrrolidone (NACALAI TESQUE, INC.)) and then put on a perfusion jig for the OneCell system. […]
(§2) Subsequently, the slide was put on a prescribed site of the OneCell system and maintained with a Ca^2+ ringer solution having been circulated, and fluorescent images derived from Fluo-4 of each olfactory epithelium-derived cell included in the nano chambers were observed through 4×objective lens, and changes in fluorescence intensity over time were recorded. […]

Experiment [3] addresses T1, Olfr166 (Mus musculus, UniProt Q8VGX2). Particulars: HG28-24 cells, stimulation by pyridine. The method, then:
as §1, §2

In experiment [4] the target is T1, Olfr166. Description: cell-based. The source says: (§3) In order to verify whether or not the mouse-derived olfactory receptors obtained in the above 3) and 4) surely respond to odor molecules used for screening, a system in which adenylate cyclase is activated from a olfactory receptor through heterotrimeric G protein including Gaolf to accumulate cAMP from ATP, and luciferase expression is induced in an intracellular cAMP concentration-dependent manner, was reconstructed in HEK 293 cells.
(§4) Specifically, each of mouse-derived olfactory receptor genes, Olfr168, Olfr205, Olfr45 and Olfr166, and DNA coding for the amino acid sequence shown in SEQ ID NO:9 were fused. The obtained genes were incorporated into pME18S plasmid incorporated into downstream of SRa promoter, a plasmid having a base sequence coding for the amino acid sequence shown in SEQ ID NO:2 to allow Gaolf to be expressed, a plasmid to allow Receptor-transporting protein 1S (RTP1S) having a base sequence shown in SEQ ID NO:6, which is a factor to raise the efficiency of presentation of olfactory receptors from the Golgi body to the cell surface, to be expressed, and a cAMP-responsive luciferase expressing plasmid pGlosensor-22 (Promega Corporation). The plasmids are introduced into HEK 293T cells by Lipofectamine 2000 (Life Technologies) to cause transient expression.

Experiment [5] relates to olfactory sensory neurons. Description: OneCell system Fluo-4 screening of olfactory epithelium-derived cells stimulated by an odor molecule. Particulars: 2-pentanone (30 mM) for 10 seconds and (3 mM) for 10 seconds; of approximately 10000 olfactory sensory neurons. The format is cell-based, mouse. The method, then: C57/BL6J (male) aged 3 to 5 weeks were purchased from Japan SLC, Inc. The mice were beheaded after intravenous anesthesia with […] of Urethane solution (300 mg/mL; U2500, Sigma-Aldrich) and olfactory epithelium was extracted on ice. […] An equal amount of Ca^2+ ringer solution containing 0.1 mg/mL DNase I, 0.1 mg/mL BSA, and […] leupeptin (0.025 mg/mL trypsin inhibitor in the case of trypsin) was added thereto to stop the enzyme reaction, and the obtained solution then allowed to pass through a cell strainer twice to remove large tissue fragments.
The sample after removal was subjected to centrifugation treatment, and this was washed once to obtain an olfactory epithelium-derived cell solution.
(§5) The olfactory epithelium-derived cells were stimulated as follows.
The olfactory epithelium-derived cells were stimulated by an odor molecule, 2-pentanone (30 mM) for 10 seconds and 2-pentanone (3 mM) for 10 seconds under the above conditions, and olfactory sensory neurons included in olfactory epithelium-derived cells were then identified by a high K^+ ringer solution. As a result, approximately 100 of approximately 10000 olfactory sensory neurons reacted with 2-pentanone. […]

Experiment [6] deals with T2, Olfr168 (Mus musculus, UniProt A0PK36).
T2 sequence (A0PK36 1-312): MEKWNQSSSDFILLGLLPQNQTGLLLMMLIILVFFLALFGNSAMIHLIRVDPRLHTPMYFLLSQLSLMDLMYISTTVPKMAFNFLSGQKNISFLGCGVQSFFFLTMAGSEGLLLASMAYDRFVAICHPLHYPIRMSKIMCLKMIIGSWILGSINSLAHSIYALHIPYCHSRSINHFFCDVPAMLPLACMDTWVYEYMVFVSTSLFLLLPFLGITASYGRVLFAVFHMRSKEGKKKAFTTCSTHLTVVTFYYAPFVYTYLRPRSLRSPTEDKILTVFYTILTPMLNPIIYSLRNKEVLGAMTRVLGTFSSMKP
Description: Fluo-4 Ca2+ uptake in isolated olfactory sensory neuron HI28-03 (calculation method (A)). In kind it is cell-based. Particulars: HI28-03 cells. How it is done: as §5
(§6) As a result, Olfr168 (mOR271-1; GenBank accession number: AY317252) and Olfr205 (mOR182-11P; GenBank accession number: BC150839) were identified in HI28-03 and HI25-18 respectively.
(§7) Specifically, the above Ca^2+ ringer solution was refluxed to the slide glass which had been put on the OneCell device and had stored olfactory epithelium-derived cells, and a Ca^2+ ringer solution containing 3 mM 2-pentanone described below was added thereto for 20 seconds every two minutes. The degree of increase in transient fluorescence intensity derived from Fluo-4 in each olfactory sensory neuron was repeatedly measured 5 times (FIG. 8).

Experiment [7] concerns the target T3, Olfr205 (Mus musculus, UniProt B9EKD6).
T3 sequence (B9EKD6 1-305): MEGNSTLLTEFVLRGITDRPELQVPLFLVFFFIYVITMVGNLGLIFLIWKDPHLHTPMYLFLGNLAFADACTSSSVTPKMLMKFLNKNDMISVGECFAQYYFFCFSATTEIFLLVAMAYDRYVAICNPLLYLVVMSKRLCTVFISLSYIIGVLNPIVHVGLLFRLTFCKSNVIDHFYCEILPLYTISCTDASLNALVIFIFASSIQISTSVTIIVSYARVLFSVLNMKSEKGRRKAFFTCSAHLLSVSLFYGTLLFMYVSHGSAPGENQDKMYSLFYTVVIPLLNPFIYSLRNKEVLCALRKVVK
Description: Fluo-4 Ca2+ uptake in isolated olfactory sensory neuron HI25-18 (calculation method (A)). In kind it is cell-based. Particulars: HI25-18 cells. How it is done: as §5, §6, §7

Experiment [8] addresses T2, Olfr168. Description: Reconstruction experiment: cAMP-responsive luciferase in HEK 293T cells expressing Olfr168. In kind it is cell-based. Particulars: HEK 293T cells transiently expressing Olfr168, Gaolf, RTP1S, pGlosensor-22.
Text: as §3, §4

For experiment [9], the target named is T3, Olfr205. Description: Reconstruction experiment: cAMP-responsive luciferase in HEK293 cells expressing Olfr205. The format is cell-based.
Text: as §3, §4

Experiment [10] has as its system human-derived olfactory receptor. Description: Human olfactory receptor-expressing cell array (404 sites, HEK293-C1/2 strain) on OneCell system. In kind it is cell-based. To be noted: concentration of 10 mM. The source says:
In the substrate used, hydrophilicity is increased by plasma treatment of the surface of a slide glass (Matsunami Glass Ind., Ltd.) by a plasma modifier (PM100, Yamato Scientific Co., Ltd.) It should be noted that a machine used for dot printing is a LaboJet-500 manufactured by MicroJet. […] When the array is left to stand on specific culture conditions and observed after 2 days, it is expected that added HEK293-C1/2 strain is proliferated on the sites on which the plasmid has been immobilized to form colonies. After that, the substrate having formed colonies thereon is loaded on the above OneCell system in the method shown in 2).

Where [11] appears, read: 3 mM 2-pentanone for 20 seconds every two minutes, measured 5 times.
Where [12] appears, read: stimulation by 2-pentanone, experiment independently carried out 5 times, read-out: relative value of increased Fluo-4 fluorescence intensity (high K+ ringer depolarization considered 100%).

T1 sequence (Q8VGX2 1-312): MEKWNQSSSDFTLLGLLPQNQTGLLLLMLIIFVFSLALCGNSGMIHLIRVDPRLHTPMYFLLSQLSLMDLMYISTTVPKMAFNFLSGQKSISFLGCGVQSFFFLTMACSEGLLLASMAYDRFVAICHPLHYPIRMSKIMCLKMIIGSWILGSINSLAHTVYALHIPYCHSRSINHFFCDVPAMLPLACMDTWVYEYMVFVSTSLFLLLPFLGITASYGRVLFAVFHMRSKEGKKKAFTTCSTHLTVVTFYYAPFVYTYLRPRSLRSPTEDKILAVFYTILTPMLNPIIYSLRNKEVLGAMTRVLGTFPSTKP
Chain of Olfr45 (A0JLW4 1-311): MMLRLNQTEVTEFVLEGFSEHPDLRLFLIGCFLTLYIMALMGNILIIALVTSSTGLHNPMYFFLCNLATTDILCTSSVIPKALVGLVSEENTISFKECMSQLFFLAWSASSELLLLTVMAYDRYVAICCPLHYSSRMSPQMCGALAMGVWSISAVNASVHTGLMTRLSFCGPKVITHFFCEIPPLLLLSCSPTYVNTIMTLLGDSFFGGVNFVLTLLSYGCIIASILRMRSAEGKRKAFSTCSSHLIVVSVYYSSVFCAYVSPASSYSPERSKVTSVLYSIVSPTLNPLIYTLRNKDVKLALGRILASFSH
Chain of Olfr1258 (Q8VGN6 1-311): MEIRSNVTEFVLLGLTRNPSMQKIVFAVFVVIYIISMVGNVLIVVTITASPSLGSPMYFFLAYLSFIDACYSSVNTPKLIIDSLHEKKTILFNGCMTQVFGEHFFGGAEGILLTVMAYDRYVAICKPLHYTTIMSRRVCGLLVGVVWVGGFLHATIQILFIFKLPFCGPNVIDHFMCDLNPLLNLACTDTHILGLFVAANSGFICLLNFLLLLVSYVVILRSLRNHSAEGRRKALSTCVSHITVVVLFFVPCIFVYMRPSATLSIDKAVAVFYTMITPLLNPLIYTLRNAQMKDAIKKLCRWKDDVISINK

On to `CCC(C)=O` [2-butanone], for which the EC50 (as a rule, the concentration at which the effect is half-maximal) in experiment [1] is about 1.5 mM.
Regarding `c1ccncc1` [pyridine], the “increased amount of fluorescence intensity derived from Fluo-4” value worked out at 195±70 in experiment [2] (IG04-13 cells, stimulation by pyridine) and 153±47 in experiment [3]. The Emax in experiment [2] (read-out: relative value of increased Fluo-4 fluorescence intensity (high K+ ringer depolarization considered 100%)) is 120 ± 6%. The “relative value of increased Fluo-4 fluorescence intensity (high K+ ringer depolarization considered 100%)” value in [3] (experiment independently carried out 5 times) was determined as 132±5%. In experiment [4], this compound had an EC50 of about 5 mM.
As to `CCCC(C)=O` [2-pentanone], the “number of olfactory sensory neurons that reacted with the odor molecule” value in experiment [5] is reported as “approximately 100”. In addition, the “increase in transient fluorescence intensity derived from Fluo-4” value in [6] (setting [11]) is 46±12; in [7] (setting [11]), 38±10. Besides, the Emax in experiment [6] (setting [12]) is 74 ± 3%; in experiment [7] (setting [12]), 67 ± 4%. The EC50 was 2.1 ± 0.6 mM in experiment [8] and about 4 mM in experiment [9].
With `COc1cc(C=O)ccc1O` [vanillin], the “fluorescence intensity response of cells to the odor molecule” value in experiment [10] was “increase in fluorescence intensity was observed in some cells”.
